The text below walks through data of patent US9610262B2, “Therapeutic and/or preventive agent comprising 1-indansulfamide derivative for pain” (Eisai R&D Management Co., Ltd., priority 2013, dated 2017).

Each structure is given as a SMILES string.

Assay [1] deals with acute persistent pain (formalin-injected paw). The experiment in a line: Formalin test (second phase). The format is in vivo, Male CD1 (ICR) mice. Particulars: oral pre-administration; 15 to 45 minutes after injection of 2.5% formalin; FIG. 2. As to the method: The compounds were examined in the second phase of the formalin test to determine an analgesic effect on acute persistent pain. In this model, the duration of responses induced by pain (behavior such as licking or biting of the formalin-injected paw) is used as an evaluation index (Dubuisson and Dennis (Pain, 4: p. 161-174 (1977)). Male CD1 (ICR) mice (Charles River Japan) aged 5 to 6 weeks (n=6 to 16, for each treatment) were used for the experiment. The responses induced by pain were measured by an automated behavioral analysis apparatus (MicroAct (Neuroscience, Inc.)) according to detection of changes in magnetic field. Before the day prior to evaluation of pain response, a small magnet for the detection of changes in magnetic field was implanted in the left hindlimb instep under isoflurane anesthesia. For oral administration, the test compound was suspended in a solution containing 0.45% methyl cellulose/4.5% Ceremophor/10% dimethyl sulfoxide to prepare a suspension having a dosing volume of 10 ml/kg and the suspension was administered orally. The mixed solvent as above (vehicle) alone not containing the test compound was used as a negative control. Gabapentin was intraperitoneally administered as a positive control. A 2.5% formalin solution was prepared by diluting Formaldehyde Solution (Wako Pure Chemical Industries) with physiological saline (Otsuka Pharmaceutical). At 40 minutes to an hour after administration of the test compound or the positive control, 10 μl of the 2.5% formalin solution was subcutaneously injected in the left hindlimb pad. The mouse was placed in an observation chamber immediately after administration for measurement. For evaluation of an analgesic effect in the second phase, the duration of behaviors such as licking or biting of the paw was measured by the automated behavioral analysis apparatus from 15 to 45 minutes after injection of the 2.5% formalin solution. All data are expressed as the mean±SEM. All statistical analyses were performed using the Holm-Sidak's multiple comparisons test. The p-values less than 0.05 were judged as statistically significant in this experiment.

Assay [2] deals with tactile allodynia in rat chronic constriction injury (CCI) model. In words: Rat chronic constriction injury (CCI) model, von Frey filament test. The format is in vivo, Male SD rats. Particulars: for 50% Response threshold: mean±SEM; for response threshold against mechanical stimulation: pre-administration, 10 and 50 mg/kg oral. The text has this: The rat chronic constriction injury (CCI) model was used to determine the efficacy on the chronic pain. In this model, tactile allodynia, a typical symptom in chronic pain patients, can be evaluated by using a response threshold against mechanical stimulation by von Frey filaments as an index (Bennett G. J. and Xie, Y. K., (Pain 1988; 33: p 87-107).
Male SD rats (Charles River Japan) aged 6 weeks (n=4, each treatment performed twice in total) were used for this experiment. The rat chronic constriction injury (CCI) model was prepared in accordance with the method of Bennett and Xie above.
The common sciatic nerve was exposed at the level of the middle of the thigh by blunt dissection through biceps femoris under isoflurane anesthesia. Four ligatures (4-0 silk) were tied loosely around the sciatic nerve at about 1 mm spacing. The biceps femoris and the skin were sutured.
On 14 days after surgery, efficacy of the compounds on tactile allodynia was evaluated. The animals were housed in wire mesh bottom cages for 30 minutes prior to the start of the experiment for acclimation. The test compound was suspended in an aqueous solution containing 0.45% methyl cellulose/4.5% Cremophor/10% dimethyl sulfoxide to prepare a suspension having a dosing volume of 10 ml/kg and the suspension was administered orally. The above mixed solvent (vehicle) alone not containing the test compound was used as a negative control. The response threshold against mechanical stimulation was measured by the application of von Frey filaments at bending forces (0.4, 0.6, 1, 2, 4, 6, 8, and 15 g) to the plantar surface of the hind paw in accordance with Chaplan et al. (J Neuroscience Methods 1994; 53(1): p. 55-63). The von Frey filaments were pushed to the paw for 6 seconds to evaluate escape response. The 50% response threshold was determined in accordance with the up-down method of Dixon (Annual Review of Pharmacology and Toxicology 1980; 20: p. 441-462). The measurement was performed before administration and at 30, 90 and 180 minutes after administration. All data are expressed as the mean±SEM. All statistical analyses were performed using Two way Repeated Measures ANOVA followed by Dunnett's test. The p-values less than 0.05 were judged as statistically significant in this experiment.

Assay [3] relates to acute pain (mice hot plate, 53° C.). In words: Mice hot-plate test. It is filed as in vivo, Male C57BL/6NCrlCrlj mice. Particulars: oral, 60 minutes before the hot-plate test; FIG. 1. As to the method: The mice hot-plate test was performed to determine the efficacy on acute pain. In this model, latency to the first pain response is recorded as a measure of pain sensitivity (Malmberg, A. and Yaksh, T., Pain. 1995, 60: 83-90).
Male C57BL/6NCrlCrlj mice (Charles River Japan) aged 6 weeks (n=4 to 10, for each treatment) were used for this experiment. The hot plate (model MK 350, Muromachi Kikai Co. Ltd) was set to 53° C. For oral administration, the test compound was suspended in an aqueous solution containing 0.45% methyl cellulose/4.5% Cremophor/10% dimethyl sulfoxide to prepare a suspension having a dosing volume of 10 ml/kg and the suspension was administered orally 60 minutes before the hot-plate test Morphine was used as a positive control and the mixed solvent (vehicle) alone not containing the test compound was used as a negative control.
Each mouse was placed on the hot plate and a stopwatch was immediately started for measurement. The latency time to the first pain response (paw lick or escape jump) was measured. The cut-off time was set to 30 seconds in order to avoid overdamage of the tissues, and the mouse was immediately removed from the hot-plate after measurement. All data are expressed as the mean±SEM. All statistical analyses were performed using Holm-Sidak's multiple comparisons test. The p-values less than 0.05 were judged as statistically significant in this experiment.

[4] abbreviates: 10 mg/kg oral, 30 min after administration.
Setting [5] is: 10 mg/kg oral, 90 min after administration.
[6] abbreviates: 10 mg/kg oral, 180 min after administration.
The mark [7] stands for this setting: 10 mg/kg oral, Pre (before administration), 14 days after surgery.
[8] abbreviates: 50 mg/kg oral, 30 min after administration.
Setting [9] is: 50 mg/kg oral, 90 min after administration.
Where [10] appears, read: 50 mg/kg oral, 180 min after administration.
The mark [11] stands for this setting: 50 mg/kg oral, Pre (before administration), 14 days after surgery.

As to `NS(=O)(=O)NC1c2c(Cl)cc(F)cc2CC1(F)F` (single isomer, unassigned; (-)) [Compound 2, (−)-N-(7-chloro-2,2,5-trifluoro-2,3-dihydro-1H-inden-1-yl)sulfamide], the “duration of the pain response” value in assay [1] is “statistically significantly shortened”. Also, the “50% Response threshold” value in assay [2] (setting [4]) is 3.2 ± 0.4 g; in assay [2] (setting [5]) it was 4.1 ± 0.5 g; in assay [2] (setting [6]), 3.1 ± 0.2 g; in assay [2] (setting [7]), 2.4 ± 0.2 g; in assay [2] (setting [8]) it was 4.2 ± 0.6 g; in assay [2] (setting [9]), 7.6 ± 1.1 g. The results for the “50% Response threshold” value in assay [2] (setting [10]) and in assay [2] (setting [11]) were 4.0 ± 0.5 g and 2.3 ± 0.2 g, respectively. Further, in assay [2] (50 mg/kg oral), the “analgesic effect on tactile allodynia in CCI model” value is reported as “statistically significant analgesic effect”. For the same compound, the “response threshold against mechanical stimulation” value in assay [2] is given as “increased in an approximately dose dependent manner”. Moreover, in assay [3], the “latency time to the first pain response” value is reported as “significantly increased”.

In the case of `NS(=O)(=O)N[C@H]1c2c(F)cc(F)cc2CC1(F)F` [Compound 1, N-[(1S)-2,2,5,7-tetrafluoro-2,3-dihydro-1H-inden-1-yl]sulfamide], in assay [1], the “duration of the pain response” value is listed as “statistically significantly shortened”. Moreover, the “50% Response threshold” value in assay [2] (setting [4]) is given as 3.2 ± 0.3 g; in assay [2] (setting [5]), 4.4 ± 0.5 g; in assay [2] (setting [6]), 3.1 ± 0.3 g; in assay [2] (setting [7]), 2.4 ± 0.2 g; in assay [2] (setting [8]), 6.0 ± 0.7 g; in assay [2] (setting [9]) it was 11.4 ± 1.4 g. Besides, the “50% Response threshold” value in assay [2] (setting [10]) is listed as 5.3 ± 0.6 g; in assay [2] (setting [11]), 2.3 ± 0.2 g. Further, the “analgesic effect on tactile allodynia in CCI model” value in assay [2] (50 mg/kg oral) is given as “statistically significant analgesic effect”. Also, the “response threshold against mechanical stimulation” value in assay [2] is listed as “increased in an approximately dose dependent manner”. In addition, the “latency time to the first pain response” value in assay [3] is listed as “significantly increased”.

On to `Cc1cccc2c1[C@H](NS(N)(=O)=O)C(F)(F)C2` [Compound 3, N-[(1S)-2,2-difluoro-7-methyl-2,3-dihydro-1H-inden-1-yl]sulfamide], for which, in assay [1], the “duration of the pain response” value is on record as “statistically significantly shortened”. Besides, the “50% Response threshold” value in assay [2] (setting [4]) stood at 2.6 ± 0.4 g; in assay [2] (setting [5]), 3.5 ± 0.7 g; in assay [2] (setting [6]), 3.9 ± 0.4 g; in assay [2] (setting [7]) it was 2.4 ± 0.2 g; in assay [2] (setting [8]) it was 3.1 ± 0.4 g; in assay [2] (setting [9]), 3.2 ± 0.5 g. The “50% Response threshold” value was 4.0 ± 0.4 g in assay [2] (setting [10]) and 2.4 ± 0.2 g in assay [2] (setting [11]). For the same compound, in assay [3], the “latency time to the first pain response” value is “significantly increased”.

For `Cc1cc(F)cc2c1[C@H](NS(N)(=O)=O)C(F)(F)C2` [Compound 4, N-[(1S)-2,2,5-Trifluoro-7-methyl-2,3-dihydro-1H-inden-1-yl]sulfamide], the “duration of the pain response” value in assay [1] was “statistically significantly shortened”. For the same compound, the “50% Response threshold” value in assay [2] (setting [4]) amounted to 3.6 ± 0.4 g; in assay [2] (setting [5]), 5.2 ± 1.5 g; in assay [2] (setting [6]), 5.2 ± 1.0 g; in assay [2] (setting [7]) it was 2.4 ± 0.2 g; in assay [2] (setting [8]), 4.3 ± 0.9 g; in assay [2] (setting [9]), 6.9 ± 1.5 g. Besides, the figures for the “50% Response threshold” value in assay [2] (setting [10]) and in assay [2] (setting [11]) were 5.6 ± 1.6 g and 2.4 ± 0.2 g, respectively. Also, the “latency time to the first pain response” value in assay [3] is “significantly increased”.

In the case of `NS(=O)(=O)NCc1csc2ccccc12` [compound 1, N-(benzo[b]thiophen-3-ylmethyl)sulfamide, reference compound], the “50% Response threshold” value worked out at 2.7 ± 0.4 g in assay [2] (setting [4]); 3.4 ± 0.2 g in assay [2] (setting [5]); 3.4 ± 0.3 g in assay [2] (setting [6]); 2.5 ± 0.2 g in assay [2] (setting [7]); 3.5 ± 0.3 g in assay [2] (setting [8]); 3.9 ± 0.3 g in assay [2] (setting [9]). Further, the “50% Response threshold” value in assay [2] (setting [10]) worked out at 2.8 ± 0.2 g; in assay [2] (setting [11]), 2.5 ± 0.2 g.

For the compound `NS(=O)(=O)NC[C@H]1COc2cc(Cl)ccc2O1` [compound 2, (2S)-(−)-N-(6-chloro-2,3-dihydro-benzo[1,4]dioxin-2-ylmethyl)-sulfamide, reference compound], the “50% Response threshold” value is recorded as 2.9 ± 0.4 g in assay [2] (setting [4]); 3.2 ± 0.4 g in assay [2] (setting [5]); 3.0 ± 0.2 g in assay [2] (setting [6]); 2.6 ± 0.2 g in assay [2] (setting [7]); 3.5 ± 0.3 g in assay [2] (setting [8]); 4.5 ± 0.4 g in assay [2] (setting [9]). Further, the “50% Response threshold” value amounted to 3.6 ± 0.6 g in assay [2] (setting [10]) and 2.6 ± 0.2 g in assay [2] (setting [11]).
